Here are results for 29 compounds from patent publication US6777418B2, “Retinoid compounds (I)” (Syntex (U.S.A.) LLC, priority 2000, dated 2004).

Values joined by “and” are separate entries in the source; they are usually repeats but may differ in a detail not shown here. Equal entries are not always repeated.

As for `CC1(C)c2cc(/C=C/c3ccc(C(=O)O)cc3)c(Cn3cccn3)cc2C(C)(C)[C@@H](O)[C@H]1O` (stereo in doubt) [Compound 148, 4-[(E)-2-(5,5,8,8-tetramethyl-3-pyrazol-1-ylmethyl-6,7-cis-dihydroxy-5,6,7,8-tetrahydro-naphthalen-2-yl)vinyl]-benzoic acid], the melting point was 238.3 to 241.5 °C and 238.5 to 241.5 °C.

As for `CC1(C)CCC(C)(C)c2cc(Cn3cccn3)c(/C=C/c3ccc(C(N)=O)cc3)cc21` [Compound 165, 4-[(E)-2-(5,5,8,8-tetramethyl-3-pyrzol-1-ylmethyl-5,6,7,8-tetrahydro-naphthalen-2-yl)vinyl]benzamide], the melting point was in the range of 248 to 249 °C.

As for `CC1(C)CCC(C)(C)c2cc(CCc3ncccn3)c(/C=C/c3ccc(C(=O)O)cc3)cc21` [Compound 41], the melting point is 228 to 228.9 °C.

With `CC(C)SCc1cc2c(cc1/C=C/c1ccc(C(=O)O)cc1)C(C)(C)CCC2(C)C` [Compound 13], the melting point was in the range of 208.6 to 210.8 °C.

`CC1(C)CCC(C)(C)c2cc(CSC3CCCC3)c(/C=C/c3ccc(C(=O)O)cc3)cc21` [Compound 4] displayed a melting point of 209.4 to 211.3 °C.

In turn, `Cc1nnc(SCc2cc3c(cc2/C=C/c2ccc(C(=O)O)cc2)C(C)(C)CCC3(C)C)s1` [Compound 23] registered a melting point of 218.1 to 218.5 °C.

With `CC1(C)CCC(C)(C)c2cc(Cn3cccn3)c(/C=C/c3ccc(C(=O)N4CCCCC4)cc3)cc21` [Compound 166, 4-[(E)-2-(5,5,8,8-tetramethyl-3-pyrzol-1-ylmethyl-5,6,7,8-tetrahydro-naphthalen-2-yl)vinyl]benzoic acid piperidine amide], the melting point was 171.6 to 172.5 °C.

`CC1(C)CC(O)C(C)(C)c2cc(/C=C/c3ccc(C(=O)O)cc3)c(Cn3cccn3)cc21` (centres unmarked) [Compound 137, (E)-4-[2-(3-(pyrazole-1-ylmethyl)-7-hydroxy-5,5,8,8-tetramethyl-5,6,7,8-tetrahydronaphthalene-2-yl)vinyl]benzoic acid] registered a melting point of 247.6 to 248.4 °C.

Regarding `CC1(C)CCC(C)(C)c2cc(CCn3cccn3)c(/C=C/c3ccc(C(=O)O)cc3)cc21` [Compound 29, 4-{(E)-2-[5,5,8,8-tetramethyl-3-(2-pyrazol-1-ylethyl)-5,6,7,8-tetrahydro-naphthalen-2-yl]vinyl}benzoic acid], the melting point was in the range of 235.3 to 235.9 °C.

In turn, `CC1(C)CCC(C)(C)c2cc(CSCC(O)CO)c(/C=C/c3ccc(C(=O)O)cc3)cc21` (centres unmarked) [Compound 9] gave a melting point of 174.8 to 175.9 °C.

For the compound `CC1(C)CCC(C)(C)c2cc(CCCO)c(/C=C/c3ccc(C(=O)O)cc3)cc21` [Compound 12, 4-{(E)-2-[3-(3-hydroxypropyl)-5,5,8,8-tetramethyl-5,6,7,8-tetrahydro-naphthalen-2-yl]vinyl}benzoic acid], the melting point fell in the range of 212.8 to 213.2 °C.

Compound `Cc1ccc(Cc2cc3c(cc2/C=C/c2ccc(C(=O)O)cc2)C(C)(C)CCC3(C)C)cc1` [Compound 42, 4-{(E)-2-[5,5,8,8-tetramethyl-3-(4-methylbenzyl)-5,6,7,8-tetrahydro-naphthalen-2-yl]vinyl}benzoic acid] had a melting point of 216.3 to 217.3 °C.

`Cc1nnc(SCCCc2cc3c(cc2/C=C/c2ccc(C(=O)O)cc2)C(C)(C)CCC3(C)C)s1` [Compound 28, 4-((E)-2-{5,5,8,8-Tetramethyl-3-[3-(5-methyl-[1,3,4]thiadiazol-2-ylsulfanyl)-propyl]-5,6,7,8-tetrahydro-naphthalen-2-yl}vinyl)benzoic acid] showed a melting point of 144 to 145.3 °C.

For `CC1(C)CCC(C)(C)c2cc(Cn3cccn3)c(/C=C/c3ccc(C(=O)O)c(F)c3)cc21` [Compound 47, 2-Fluoro-4-[(E)-2-[5,5,8,8-tetramethyl-3-pyrazol-1-ylmethyl-5,6,7,8-tetrahydronaphthalen-2-yl)vinyl]benzoic acid], the melting point is 177 to 179 °C.

Take `COCCOCc1cc2c(cc1/C=C/c1ccc(C(=O)O)cc1)C(C)(C)CCC2(C)C` [Compound 5]: the melting point lay within 55.9 to 58.2 °C.

For the compound `CC1(C)CCC(C)(C)c2cc(-c3cccs3)c(/C=C/c3ccc(C(=O)O)cc3)cc21`, the melting point fell in the range of 242.5 to 243.6 °C.

For `CC1(C)CC(=O)C(C)(C)c2cc(Cn3cccn3)c(/C=C/c3ccc(C(=O)O)cc3)cc21` [Compound 133, 4-[(E)-2-(5,5,8,8-tetramethyl-3-pyrazol-1-ylmethyl-6-oxo-5,6,7,8-tetrahydro-naphthalen-2-yl)vinyl]-benzoic acid], the melting point fell in the range of 233 to 233.5 °C.

Consider `CC1(C)CC(=O)C(C)(C)c2cc(/C=C/c3ccc(C(=O)O)cc3)c(Cn3cccn3)cc21` [Compound 144, (E)-4-[2-(3-(pyrazole-1-ylmethyl)-7-oxo-5,5,8,8-tetramethyl-5,6,7,8-tetrahydronaphthalene-2-yl)vinyl]benzoic acid], for which the melting point was 264.8 to 265.9 °C.

Regarding `CC1(C)CC(O)C(C)(C)c2cc(Cn3cccn3)c(/C=C/c3ccc(C(=O)O)cc3)cc21` (centres unmarked) [Compound 55, 4-[(E)-2-(5,5,8,8-tetramethyl-3pyrazol-1-ylmethyl-6-hydroxy-5,6,7,8-tetrahydro-naphthalen-2-yl)vinyl]benzoic acid], the melting point fell in the range of 241.6 to 242 °C.

For `CCOCCCc1cc2c(cc1/C=C/c1ccc(C(=O)O)cc1)C(C)(C)CCC2(C)C` [Compound 10, 4-{(E)-2-[3-(3-ethoxypropyl)-5,8,8-tetramethyl-5,6,7,8-tetrahydro-naphthalen-2-yl]vinyl}benzoic acid], the melting point is 169.4 to 173.3 °C.

`CC1(C)CCC(C)(C)c2cc(Cn3cccn3)c(/C=C/c3ccc(C(=O)O)s3)cc21` [Compound 45, 5-[(E)-2-(5,5,8,8-tetramethyl-3-pyrazol-1-ylmethyl-5,6,7,8-tetrahydro-naphthalen-2-yl)vinyl]-thiophene-2-carboxylic acid] showed a melting point of 168 to 174 °C.

On to `CC1(C)CCC(C)(C)c2cc(Sc3ncccn3)c(/C=C/c3ccc(C(=O)O)cc3)cc21` [Compound 155, 4-{(E)-2-[5,5,8,8-Tetramethyl-3-(mercaptopyrmidin-2-yl)-5,6,7,8-tetrahydro-naphthalen-2-yl)vinyl]benzoic acid], for which the melting point lay in the range of 283 to 283.5 °C.

`Cn1cnnc1SCc1cc2c(cc1/C=C/c1ccc(C(=O)O)cc1)C(C)(C)CCC2(C)C` [Compound 22] registered a melting point of 251.6 to 252.6 °C.

On to `CC1(C)CCC(C)(C)c2cc(Cc3ccc(F)cc3F)c(/C=C/c3ccc(C(=O)O)cc3)cc21` [Compound 43, 4-{(E)-2-[5,5,8,8-tetramethyl-3-(2,4-difluorobenzyl)-5,6,7,8-tetrahydro-naphthalen-2-yl]vinyl}benzoic acid], for which the melting point fell in the range of 204.3 to 205.7 °C.

On to `CC1(C)CCC(C)(C)c2cc(CCc3nccs3)c(/C=C/c3ccc(C(=O)O)cc3)cc21` [Compound 40, 4-{(E)-2-[5,5,8,8-tetramethyl-3-(2-thiazol-2-yl-ethyl)-5,6,7,8-tetrahydro-naphthalen-2-yl)vinyl]benzoic acid], for which the melting point is 215.8 to 217.5 °C.

`Cc1nnc(SCCc2cc3c(cc2/C=C/c2ccc(C(=O)O)cc2)C(C)(C)CCC3(C)C)s1` [Compound 27, 4-((E)-2-{5,5,8,8-tetramethyl-3-[3-(5-methyl-[1,3,4]thiadizol-2ylsulfanyl)-ethyl]-5,6,7,8-tetrahydro-naphthalen-2-yl}vinyl)benzoic acid] registered a melting point of 244.7 to 245.2 °C.

In turn, `CC1(C)CCC(C)(C)c2cc(-c3ccsc3)c(/C=C/c3ccc(C(=O)O)cc3)cc21` gave a melting point of 244.5 to 245.8 °C.

In turn, `CC1(C)CCC(C)(C)c2cc(CCCn3cccn3)c(/C=C/c3ccc(C(=O)O)cc3)cc21` [Compound 30, 4-{(E)-2-[5,5,8,8-tetramethyl-3-(3-pyrazol-1-ylpropyl)-5,6,7,8-tetrahydro-naphthalen-2-yl]vinyl}benzoic acid] came in with a melting point of 181.5 to 182.5 °C.

As for `CC1(C)CCC(C)(C)c2cc(Cc3cccs3)c(/C=C/c3ccc(C(=O)O)cc3)cc21` [Compound 44, 4-[(E)-2-(5,5,8,8-tetramethyl-3-thiophen-2ylmethyl-5,6,7,8-tetrahydro-naphthalen-2-yl)vinyl]benzoic acid], the melting point is 229.1 to 229.6 °C.

As a reminder, the melting point is the temperature of the solid-liquid transition.
